Source: ChEMBL document CHEMBL5500406, “Discovery of Novel Proteolysis-Targeting Chimera Molecules as Degraders of Programmed Cell Death-Ligand 1 for Breast Cancer Therapy” (J Med Chem, 2024)
Activity calls are given as the source filed them. No cut-off for these calls is given here.

Key:
[1] = Tmax in Sprague-Dawley rat at 30 mg/kg, ip measured for 24 hrs by LC-MS/MS analysis; assay type: ADME, organism-based; conditions: in vivo
[2] = Toxicity in BALB/c mouse allografted with mouse 4T1 cells assessed as pathological change in spleen at 30 to 60 mg/kg, ip qd for 15 days by H and E staining based analysis; assay type: organism-based; conditions: in vivo, 360 h, dose 30-60 mg/kg, time 15 day
[3] = Toxicity in BALB/c mouse allografted with mouse 4T1 cells assessed as pathological change in liver at 30 to 60 mg/kg, ip qd for 15 days by H and E staining based analysis; assay type: organism-based; conditions: in vivo, 360 h, dose 30-60 mg/kg, time 15 day
[4] = molecular target: T1, Protein cereblon/Programmed cell death 1 ligand 1 (Mus musculus) (UniProt Q9EP73+Q8C7D2); experiment: PROTAC activity at CRBN/PD-L1 in mouse 4T1 cells assessed as reduction in green fluorescence in cell membrane at 0.312 uM incubated for 24 hrs by immunofluorescence analysis; assay type: cell membranes
4T1 [5] = experiment: Antitumor activity against mouse 4T1 cells assessed as increase in cell mortality rate at 0.312 uM pretreated with compound followed by co-culture of CD3/CD28-activated PBMC cells measured after 24 hrs by LDH assay relative to control; assay type: functional
4T1 [6] = experiment: Antitumor activity against mouse 4T1 cells allografted in BALB/c mouse assessed as reduction in tumor volume at 30 to 60 mg/kg, ip qd for 15 days; assay type: functional, organism-based; conditions: dose 30-60 mg/kg, time 15.0 day
4T1 [7] = experiment: In vivo PROTAC activity at CRBN/PD-L1 in mouse 4T1 cells allografted in BALB/c mouse assessed as protein degradation at 30 to 60 mg/kg, ip qd for 15 days by IHC analysis; assay type: functional, organism-based; conditions: dose 30-60 mg/kg, time 15.0 day
[8] = molecular target: T1, Protein cereblon/Programmed cell death 1 ligand 1 (Mus musculus); experiment: PROTAC activity at CRBN/PD-L1 in mouse 4T1 cells assessed as protein degradation at 0.078 to 2.5 uM incubated for 24 hrs by Western blot analysis; assay type: cell-based; conditions: dose 0.078-2.5 µM
[9] = molecular target: Programmed cell death 1 ligand 1 (Mus musculus, UniProt Q9EP73); experiment: Binding affinity to mouse PD-L1 assessed as dissociation constant incubated for 15 mins by MST assay
[10] = molecular target: Protein cereblon/Programmed cell death 1 ligand 1 (Homo sapiens) (UniProt Q9NZQ7+Q96SW2); experiment: PROTAC activity at CRBN/PD-L1 in human MDA-MB-231 cells assessed as protein degradation at >=5 uM measured for 24 hrs by Western blot analysis; assay type: cell-based
[11] = molecular target: T1, Protein cereblon/Programmed cell death 1 ligand 1 (Mus musculus); experiment: PROTAC activity at CRBN/PD-L1 in mouse 4T1 cells assessed as protein degradation at 0.312 uM incubated for 24 hrs by Western blot analysis relative to control; assay type: cell-based
[12] = molecular target: T1, Protein cereblon/Programmed cell death 1 ligand 1 (Mus musculus); experiment: PROTAC activity at CRBN/PD-L1 in mouse 4T1 cells assessed as protein degradation at 0.312 uM incubated for 24 hrs in presence of MG132 by Western blot analysis; assay type: cell-based
4T1 [13] = experiment: Antitumor activity against mouse 4T1 cells allografted in BALB/c mouse assessed as increase in CD8+ T cells infiltration in tumor at 30 to 60 mg/kg, ip qd for 15 days by IHC analysis; assay type: functional, organism-based; conditions: dose 30-60 mg/kg, time 15.0 day
4T1 [14] = experiment: Antitumor activity against mouse 4T1 cells allografted in BALB/c mouse at 30 mg/kg, ip qd for 15 days relative to control; assay type: functional; conditions: 4T1, 360 h, time 15 day, read-out: TGI
4T1 [15] = experiment: Antitumor activity against mouse 4T1 cells assessed as increase in cell mortality rate at 0.078 uM pretreated with compound followed by co-culture of CD3/CD28-activated PBMC cells measured after 24 hrs by LDH assay relative to control; assay type: functional
[16] = Toxicity in BALB/c mouse allografted with mouse 4T1 cells assessed as pathological change in lung at 30 to 60 mg/kg, ip qd for 15 days by H and E staining based analysis; assay type: organism-based; conditions: in vivo, 360 h, dose 30-60 mg/kg, time 15 day
4T1 [17] = experiment: Antitumor activity against mouse 4T1 cells allografted in BALB/c mouse assessed as increase in Prf1 mRNA level in tumor at 60 mg/kg, ip qd for 15 days by qRT-PCR analysis; assay type: functional, organism-based; conditions: time 15.0 day
[18] = Toxicity in BALB/c mouse allografted with mouse 4T1 cells assessed as pathological change in heart at 30 to 60 mg/kg, ip qd for 15 days by H and E staining based analysis; assay type: organism-based; conditions: in vivo, 360 h, dose 30-60 mg/kg, time 15 day
[19] = Toxicity in BALB/c mouse allografted with mouse 4T1 cells assessed as abnormality in biochemical analysis at 60 mg/kg, ip qd for 15 days in presence of Paclitaxel; assay type: organism-based; conditions: in vivo, 360 h, time 15 day
4T1 [20] = experiment: Antitumor activity against mouse 4T1 cells allografted in BALB/c mouse at 60 mg/kg, ip qd for 15 days relative to control; assay type: functional; conditions: 4T1, 360 h, time 15 day, read-out: TGI
[21] = Toxicity in BALB/c mouse allografted with mouse 4T1 cells assessed as abnormality in routine blood analysis at 60 mg/kg, ip qd for 15 days in presence of Paclitaxel; assay type: organism-based; conditions: in vivo, 360 h, time 15 day
[22] = Toxicity in BALB/c mouse allografted with mouse 4T1 cells assessed as body weight loss at 30 to 60 mg/kg, ip qd for 15 days; assay type: organism-based; conditions: in vivo, 360 h, dose 30-60 mg/kg, time 15 day
[23] = Toxicity in BALB/c mouse allografted with mouse 4T1 cells assessed as pathological change in lung at 60 mg/kg, ip qd for 15 days in presence of Paclitaxel by H and E staining based analysis; assay type: organism-based; conditions: in vivo, 360 h, time 15 day
[24] = molecular target: Protein cereblon/Programmed cell death 1 ligand 1 (Mus musculus, UniProt Q9EP73+Q8C7D2); experiment: PROTAC activity at CRBN/PD-L1 in mouse 4T1 cells assessed as protein degradation incubated for 24 hrs by Western blot analysis; assay type: cell-based
[25] = Half life in Sprague-Dawley rat at 3 mg/kg, iv measured for 24 hrs by LC-MS/MS analysis; assay type: ADME, organism-based; conditions: in vivo
[26] = Toxicity in BALB/c mouse allografted with mouse 4T1 cells assessed as pathological change in liver at 60 mg/kg, ip qd for 15 days in presence of Paclitaxel by H and E staining based analysis; assay type: organism-based; conditions: in vivo, 360 h, time 15 day
4T1 [27] = experiment: Antitumor activity against mouse 4T1 cells allografted in BALB/c mouse assessed as increase in CD4+ T cells infiltration in tumor at 30 to 60 mg/kg, ip qd for 15 days by IHC analysis; assay type: functional, organism-based; conditions: dose 30-60 mg/kg, time 15.0 day
[28] = Half life in Sprague-Dawley rat at 30 mg/kg, ip measured for 24 hrs by LC-MS/MS analysis; assay type: ADME, organism-based; conditions: in vivo
[29] = […] bioavailability in Sprague-Dawley rat at 30 mg/kg, ip measured for 24 hrs by LC-MS/MS analysis; assay type: ADME, organism-based; conditions: in vivo
[30] = Cytotoxicity against BALB/c mouse PBMC cells at <=0.312 uM incubated for 48 hrs by MTT assay; assay type: toxicity, cell-based
4T1 [31] = experiment: Antitumor activity against mouse 4T1 cells allografted in BALB/c mouse assessed as reduction in tumor volume at 60 mg/kg, ip qd for 15 days in presence of Paclitaxel; assay type: functional, organism-based; conditions: time 15.0 day
[32] = molecular target: T1, Protein cereblon/Programmed cell death 1 ligand 1 (Mus musculus); experiment: PROTAC activity at CRBN/PD-L1 in mouse 4T1 cells assessed as protein degradation at 0.078 to 0.312 uM incubated for 24 hrs by flow cytometry; assay type: cell-based; conditions: dose 0.078-0.312 µM
[33] = Toxicity in BALB/c mouse allografted with mouse 4T1 cells assessed as abnormality in routine blood analysis at 30 to 60 mg/kg, ip qd for 15 days; assay type: organism-based; conditions: in vivo, 360 h, dose 30-60 mg/kg, time 15 day

T1 sequence (Q8C7D2 whole entry partner): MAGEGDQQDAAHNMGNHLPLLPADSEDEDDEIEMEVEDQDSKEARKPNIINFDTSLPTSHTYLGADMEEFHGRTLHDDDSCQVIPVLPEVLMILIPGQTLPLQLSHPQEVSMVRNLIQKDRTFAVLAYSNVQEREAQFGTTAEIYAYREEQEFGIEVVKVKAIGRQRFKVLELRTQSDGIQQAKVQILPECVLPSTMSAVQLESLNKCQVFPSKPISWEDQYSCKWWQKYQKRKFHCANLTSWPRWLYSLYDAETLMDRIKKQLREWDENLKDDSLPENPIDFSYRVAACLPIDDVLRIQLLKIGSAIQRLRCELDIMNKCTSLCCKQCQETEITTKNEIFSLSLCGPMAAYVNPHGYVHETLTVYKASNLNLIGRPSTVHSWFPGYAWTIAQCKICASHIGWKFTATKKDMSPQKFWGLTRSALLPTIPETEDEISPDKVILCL
T1 sequence (Q9EP73 19-290 limits assumed): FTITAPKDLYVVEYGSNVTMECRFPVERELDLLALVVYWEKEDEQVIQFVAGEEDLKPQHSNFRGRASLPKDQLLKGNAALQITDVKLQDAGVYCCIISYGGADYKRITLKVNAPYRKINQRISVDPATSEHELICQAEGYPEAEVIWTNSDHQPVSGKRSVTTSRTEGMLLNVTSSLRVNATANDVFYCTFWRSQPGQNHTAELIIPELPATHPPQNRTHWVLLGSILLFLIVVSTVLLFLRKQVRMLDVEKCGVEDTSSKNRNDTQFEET
Protein cereblon/Programmed cell death 1 ligand 1 (Homo sapiens), sequence (Q96SW2 whole entry, looked up): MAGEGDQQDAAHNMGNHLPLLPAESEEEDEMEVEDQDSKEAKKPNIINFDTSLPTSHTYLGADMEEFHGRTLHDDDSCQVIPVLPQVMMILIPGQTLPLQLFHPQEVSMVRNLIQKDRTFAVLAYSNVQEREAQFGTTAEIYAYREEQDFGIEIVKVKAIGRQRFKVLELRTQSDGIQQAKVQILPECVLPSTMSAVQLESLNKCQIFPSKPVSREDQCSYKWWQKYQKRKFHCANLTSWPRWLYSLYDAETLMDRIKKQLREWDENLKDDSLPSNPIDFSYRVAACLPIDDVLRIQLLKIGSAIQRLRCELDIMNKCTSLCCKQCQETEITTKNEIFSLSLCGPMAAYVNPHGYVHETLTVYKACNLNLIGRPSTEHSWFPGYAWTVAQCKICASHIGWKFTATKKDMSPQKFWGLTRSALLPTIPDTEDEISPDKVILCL
Protein cereblon/Programmed cell death 1 ligand 1 (Homo sapiens), sequence (Q9NZQ7 whole entry, looked up): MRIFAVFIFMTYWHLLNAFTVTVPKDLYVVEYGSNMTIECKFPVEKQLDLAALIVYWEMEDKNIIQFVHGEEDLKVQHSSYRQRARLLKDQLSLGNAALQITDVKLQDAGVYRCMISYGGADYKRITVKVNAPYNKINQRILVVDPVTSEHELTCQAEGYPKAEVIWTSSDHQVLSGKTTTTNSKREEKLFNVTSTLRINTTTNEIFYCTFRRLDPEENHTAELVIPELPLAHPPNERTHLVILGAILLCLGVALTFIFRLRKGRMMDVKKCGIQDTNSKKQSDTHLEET
Protein cereblon/Programmed cell death 1 ligand 1, sequence (Q9EP73 whole entry): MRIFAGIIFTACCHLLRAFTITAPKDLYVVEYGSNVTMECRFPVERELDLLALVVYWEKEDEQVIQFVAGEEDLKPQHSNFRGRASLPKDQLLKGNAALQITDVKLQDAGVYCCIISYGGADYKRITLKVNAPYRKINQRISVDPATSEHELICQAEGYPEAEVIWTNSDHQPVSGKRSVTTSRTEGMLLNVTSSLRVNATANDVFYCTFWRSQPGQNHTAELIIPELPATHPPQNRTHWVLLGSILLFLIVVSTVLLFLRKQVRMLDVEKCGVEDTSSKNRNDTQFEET
Protein cereblon/Programmed cell death 1 ligand 1, sequence (Q8C7D2 whole entry): as the sequence (Q8C7D2 whole entry partner) above
Programmed cell death 1 ligand 1, sequence (Q9EP73 whole entry): as the sequence (Q9EP73 whole entry) above

Question: Which results are given for `COc1nc(OCc2cccc(-c3ccccc3)c2C)ccc1CNCCNC(=O)CCCCCCCCNC(=O)COc1ccc(C2CCC(=O)NC2=O)cc1` (stereo not drawn)?
Answer: Tmax [1]: 2 h; Activity [2]: Non-Toxic; Activity [3]: Non-Toxic; Activity [4]: Active; Activity (4T1 [5]): 72.3%; Activity (4T1 [6]): Active; Activity (4T1 [7]): Active; Activity [8]: Active; Kd [9]: 59.2 µM; Activity [10]: Active; Emax [11]: 85%; Activity [12]: inactive; Activity (4T1 [13]): Active; inhibition in vivo at 30 mg/kg (4T1 [14]): 75%; Activity (4T1 [15]): 31.8%; Activity [16]: Non-Toxic; Activity (4T1 [17]): Active; Activity [18]: Non-Toxic; Activity [19]: Non-Toxic; inhibition in vivo at 60 mg/kg (4T1 [20]): 83.2%; Activity [21]: Non-Toxic; Activity [22]: Non-Toxic; Activity [23]: Non-Toxic; DC50 [24]: 0.609 µM; half-life [25]: 0.952 h; Activity [26]: Non-Toxic; Activity (4T1 [27]): Active; half-life [28]: 5.3 h; bioavailability [29]: 71.2%; Activity [30]: Non-Toxic; Activity (4T1 [31]): Active; Activity [32]: Active; Activity [33]: Non-Toxic
